Earlier results, collected in patent publication US20080003608A1, “Highly Specific Polyclonal Antibodies of Individual Core Histone and Uses Thereof” (priority 2004, published 2008).

Target: T1, p300 (Homo sapiens, UniProt Q09472)
T1 construct: lane 3 curcumin (75 μM) treated cells, lane 4, curcumin (100 μM) treated cells; endogenous in cells
Settings: reference (2)

T1 sequence (Q09472 whole entry, species assumed): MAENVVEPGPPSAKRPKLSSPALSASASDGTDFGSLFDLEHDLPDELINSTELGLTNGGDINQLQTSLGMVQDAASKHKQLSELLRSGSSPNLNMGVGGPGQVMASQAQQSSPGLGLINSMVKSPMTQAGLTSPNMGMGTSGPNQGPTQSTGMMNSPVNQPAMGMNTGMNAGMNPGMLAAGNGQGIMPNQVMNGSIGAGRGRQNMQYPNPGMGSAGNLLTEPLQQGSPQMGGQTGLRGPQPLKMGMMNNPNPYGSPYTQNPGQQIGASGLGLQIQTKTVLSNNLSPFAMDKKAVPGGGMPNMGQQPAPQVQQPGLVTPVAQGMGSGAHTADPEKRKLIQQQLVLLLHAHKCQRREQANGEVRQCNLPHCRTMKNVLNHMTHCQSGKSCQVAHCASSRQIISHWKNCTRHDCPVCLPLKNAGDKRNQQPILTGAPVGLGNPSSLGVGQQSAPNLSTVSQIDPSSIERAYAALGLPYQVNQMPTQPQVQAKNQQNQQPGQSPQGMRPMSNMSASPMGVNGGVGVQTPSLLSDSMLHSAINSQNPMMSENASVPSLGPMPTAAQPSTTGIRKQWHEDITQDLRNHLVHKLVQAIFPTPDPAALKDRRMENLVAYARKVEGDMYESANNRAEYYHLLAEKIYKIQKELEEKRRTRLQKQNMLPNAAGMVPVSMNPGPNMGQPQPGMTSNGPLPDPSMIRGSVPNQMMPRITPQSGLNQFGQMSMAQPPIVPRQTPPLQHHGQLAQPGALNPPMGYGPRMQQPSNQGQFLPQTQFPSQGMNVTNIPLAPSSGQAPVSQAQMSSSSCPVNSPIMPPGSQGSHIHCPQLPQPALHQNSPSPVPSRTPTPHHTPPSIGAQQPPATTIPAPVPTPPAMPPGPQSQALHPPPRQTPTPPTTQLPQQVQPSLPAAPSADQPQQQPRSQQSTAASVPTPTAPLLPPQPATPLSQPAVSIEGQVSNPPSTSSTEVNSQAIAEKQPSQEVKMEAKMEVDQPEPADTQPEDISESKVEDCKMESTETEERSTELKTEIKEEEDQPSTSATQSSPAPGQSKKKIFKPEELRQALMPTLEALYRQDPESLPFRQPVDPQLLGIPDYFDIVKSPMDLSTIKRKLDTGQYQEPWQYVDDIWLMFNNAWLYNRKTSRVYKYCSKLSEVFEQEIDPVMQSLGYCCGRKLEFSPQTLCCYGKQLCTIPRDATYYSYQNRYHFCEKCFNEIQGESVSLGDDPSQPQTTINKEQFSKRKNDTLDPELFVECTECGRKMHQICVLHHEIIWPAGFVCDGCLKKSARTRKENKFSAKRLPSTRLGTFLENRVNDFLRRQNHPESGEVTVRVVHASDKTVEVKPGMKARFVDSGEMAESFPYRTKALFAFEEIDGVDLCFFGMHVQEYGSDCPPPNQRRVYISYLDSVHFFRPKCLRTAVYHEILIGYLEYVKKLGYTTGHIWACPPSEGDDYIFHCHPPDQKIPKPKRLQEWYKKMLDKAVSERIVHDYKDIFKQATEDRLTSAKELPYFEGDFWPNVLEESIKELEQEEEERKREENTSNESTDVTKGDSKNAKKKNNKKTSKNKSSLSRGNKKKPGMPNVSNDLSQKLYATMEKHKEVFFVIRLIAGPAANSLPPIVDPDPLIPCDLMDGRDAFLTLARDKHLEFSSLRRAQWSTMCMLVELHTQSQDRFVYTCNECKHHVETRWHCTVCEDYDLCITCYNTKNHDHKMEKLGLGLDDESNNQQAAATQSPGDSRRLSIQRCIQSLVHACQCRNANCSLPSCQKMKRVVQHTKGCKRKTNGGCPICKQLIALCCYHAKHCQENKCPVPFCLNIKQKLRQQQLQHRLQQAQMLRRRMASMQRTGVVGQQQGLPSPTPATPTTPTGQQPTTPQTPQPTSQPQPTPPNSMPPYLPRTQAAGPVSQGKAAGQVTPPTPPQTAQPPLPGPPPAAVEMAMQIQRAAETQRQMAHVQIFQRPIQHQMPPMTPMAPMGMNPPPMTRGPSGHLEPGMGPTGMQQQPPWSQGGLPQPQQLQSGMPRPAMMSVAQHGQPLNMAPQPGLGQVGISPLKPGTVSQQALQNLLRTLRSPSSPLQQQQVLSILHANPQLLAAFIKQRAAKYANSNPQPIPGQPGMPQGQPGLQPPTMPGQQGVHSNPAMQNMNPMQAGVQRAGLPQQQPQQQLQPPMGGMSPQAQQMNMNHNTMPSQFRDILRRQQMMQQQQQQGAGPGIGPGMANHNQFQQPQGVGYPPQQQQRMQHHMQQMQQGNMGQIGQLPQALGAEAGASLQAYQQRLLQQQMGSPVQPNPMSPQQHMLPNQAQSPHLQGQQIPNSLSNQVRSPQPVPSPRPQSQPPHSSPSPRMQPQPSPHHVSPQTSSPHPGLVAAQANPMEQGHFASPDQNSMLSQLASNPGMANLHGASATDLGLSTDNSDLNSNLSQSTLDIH

In the case of `COc1cc(/C=C/C(=O)CC(=O)/C=C/c2ccc(O)c(OC)c2)ccc1O` [Curcumin], the HAT inhibition is given as “potent p300-specific HAT inhibitor”.
